From patent US20170050957A1, “4-AMINO-6-(HETEROCYCLIC)PICOLINATES AND 6-AMINO-2-(HETEROCYCLIC)PYRIMIDINE-4-CARBOXYLATES AND THEIR USE AS HERBICIDES” (Dow AgroSciences LLC, priority 2013, published 2017)
Where two headings read alike, the source gives them in different places.

Key:
[1] = tested on: Key Grass and Sedge Weeds as well as Grass Crops; assay: Post-emergent Test II herbicidal activity (Table 16); assay type: in vivo; conditions: post-emergence, 336 h, 14 days after application; for pest or weed control at 35 g/ha: 35 g ai/ha; for pest or weed control at 70 g/ha: 70 g ai/ha; for pest or weed control at 140 g/ha: 140 g ai/ha
Summary of the method: (§1)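 Visual injury rating (0 = none, 100 = complete kill) taken 14 d after treatment, relative to untreated plants. Compounds in acetone/DMSO with crop oil concentrate and Triton X-155 were track-sprayed at 187 L/ha onto seedlings at the first-second true leaf stage.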

[2] = tested on: Key Broadleaf Weed and Crop Species; assay: Post-emergent Test II herbicidal activity (Table 15); assay type: in vivo; conditions: post-emergence, 336 h, 14 d; for pest or weed control at 35 g/ha: 35 g ai/ha; for pest or weed control at 70 g/ha: 70 g ai/ha; for pest or weed control at 140 g/ha: 140 g ai/ha
Summary of the method: as §1

[3] = Cyperus esculentus, yellow nutsedge (Cyperus esculentus), read-out: Visual Growth Reduction (%) 14 Days After Application CYPES
[4] = Echinochloa crus-galli, barnyardgrass (Echinochloa crus-galli), read-out: Visual Growth Reduction (%) 14 Days After Application ECHCG
[5] = Oryza sativa, rice (Oryza sativa), read-out: Visual Growth Reduction (%) 14 Days After Application ORYSA
[6] = Setaria faberi, giant foxtail (Setaria faberi), read-out: Visual Growth Reduction (%) 14 Days After Application SETFA
[7] = Triticum aestivum, wheat, spring (Triticum aestivum), read-out: Visual Growth Reduction (%) 14 Days After Application TRZAS
[8] = Zea mays, maize, corn (Zea mays), read-out: Visual Growth Reduction (%) 14 Days After Application ZEAMX
[9] = Abutilon theophrasti, velvetleaf (Abutilon theophrasti), read-out: Visual Growth Reduction (%) 14 Days After Application, ABUTH
[10] = Amaranthus retroflexus, redroot pigweed (Amaranthus retroflexus), read-out: Visual Growth Reduction (%) 14 Days After Application, AMARE
[11] = Brassica napus, oilseed rape, canola (Brassica napus), read-out: Visual Growth Reduction (%) 14 Days After Application, BRSNN
[12] = Chenopodium album, lambsquarters (Chenopodium album), read-out: Visual Growth Reduction (%) 14 Days After Application, CHEAL
[13] = Euphorbia heterophylla, wild poinsettia (Euphorbia heterophylla), read-out: Visual Growth Reduction (%) 14 Days After Application, EPHHL
[14] = Helianthus annuus, sunflower (Helianthus annuus), read-out: Visual Growth Reduction (%) 14 Days After Application, HELAN

Row | Structure (SMILES) | melting point [°C] | pest or weed control at 35 g/ha [1, 3] [%] | pest or weed control at 70 g/ha [1, 3] [%] | pest or weed control at 140 g/ha [1, 3] [%] | pest or weed control at 35 g/ha [1, 4] [%] | pest or weed control at 70 g/ha [1, 4] [%] | pest or weed control at 140 g/ha [1, 4] [%] | pest or weed control at 35 g/ha [1, 5] [%] | pest or weed control at 70 g/ha [1, 5] [%] | pest or weed control at 140 g/ha [1, 5] [%] | pest or weed control at 35 g/ha [1, 7] [%] | pest or weed control at 70 g/ha [1, 7] [%] | pest or weed control at 140 g/ha [1, 7] [%] | pest or weed control at 35 g/ha [1, 8] [%] | pest or weed control at 70 g/ha [1, 8] [%] | pest or weed control at 140 g/ha [1, 8] [%] | pest or weed control at 35 g/ha [2, 9] [%] | pest or weed control at 70 g/ha [2, 9] [%] | pest or weed control at 140 g/ha [2, 9] [%] | pest or weed control at 35 g/ha [2, 10] [%] | further results
1 | COC(=O)c1nc(-c2ccc3[nH]ncc3c2)c(F)c(N)c1Cl [Compound 4.01] | 188 to 190 | 0 to 29 | 0 to 29 | 0 to 29 | 0 to 29 | 0 to 29 | 0 to 29 | 0 to 29 | 0 to 29 | 0 to 29 | 0 to 29 | 0 to 29 | 0 to 29 | 0 to 29 | 0 to 29 | 0 to 29 | 0 to 29 | 0 to 29 | 0 to 29 | 0 to 29 | pest or weed control at 35 g/ha [1, 6]: 0 to 29%; pest or weed control at 70 g/ha [1, 6]: 0 to 29%; pest or weed control at 140 g/ha [1, 6]: 0 to 29%; pest or weed control at 70 g/ha [2, 10]: 45 to 59%; pest or weed control at 140 g/ha [2, 10]: 60 to 74%; pest or weed control at 35 g/ha [2, 11]: 0 to 29%; pest or weed control at 70 g/ha [2, 11]: 0 to 29%; pest or weed control at 140 g/ha [2, 11]: 0 to 29%; pest or weed control at 35 g/ha [2, 12]: 0 to 29%; pest or weed control at 70 g/ha [2, 12]: 60 to 74%; pest or weed control at 140 g/ha [2, 12]: 60 to 74%; pest or weed control at 35 g/ha [2, 13]: 0 to 29%; pest or weed control at 70 g/ha [2, 13]: 0 to 29%; pest or weed control at 140 g/ha [2, 13]: 0 to 29%; pest or weed control at 35 g/ha [2, 14]: 0 to 29%; pest or weed control at 70 g/ha [2, 14]: 0 to 29%; pest or weed control at 140 g/ha [2, 14]: 0 to 29%
2 | COC(=O)c1nc(-c2ccc3c(cnn3C)c2)c(F)c(N)c1Cl [Compound 4.03] | 156 to 159 | 0 to 29 | 0 to 29 | 0 to 29 | 60 to 74 | 75 to 84 | 75 to 84 | 0 to 29 | 0 to 29 | 0 to 29 | 0 to 29 | 0 to 29 | 0 to 29 | 0 to 29 | 0 to 29 | 0 to 29 | 0 to 29 | 0 to 29 | 0 to 29 | 0 to 29 | pest or weed control at 70 g/ha [2, 10]: 45 to 59%; pest or weed control at 140 g/ha [2, 10]: 75 to 84%; pest or weed control at 35 g/ha [2, 11]: 0 to 29%; pest or weed control at 70 g/ha [2, 11]: 0 to 29%; pest or weed control at 140 g/ha [2, 11]: 0 to 29%; pest or weed control at 35 g/ha [2, 12]: 95 to 100%; pest or weed control at 70 g/ha [2, 12]: 95 to 100%; pest or weed control at 140 g/ha [2, 12]: 95 to 100%; pest or weed control at 35 g/ha [2, 13]: 45 to 59%; pest or weed control at 70 g/ha [2, 13]: 60 to 74%; pest or weed control at 140 g/ha [2, 13]: 75 to 84%; pest or weed control at 35 g/ha [2, 14]: 0 to 29%; pest or weed control at 70 g/ha [2, 14]: 45 to 59%; pest or weed control at 140 g/ha [2, 14]: 60 to 74%
